The values below are quoted from earlier work in patent publication US11110072B2, “Broad spectrum pharmacological composition for treatment of various infections and diseases and methods of use” (Greyfer Innova Pharma, LLC, priority 2013, dated 2021).

For data set [1] the following is noted: even at high concentrations.
The conditions of data set [2]: after oral administration.

Regarding `O=C(O)CC(O)(CC(=O)O)C(=O)O` [Citric acid, 2-hydroxytricarboxylic acid], the “effect in contact with skin” value in data set [1] was “not injurious in contact with skin”. Besides, in data set [2], the “excreted unchanged in urine” value was “less than 1%”.
